# Laboratory results published in ChEMBL document CHEMBL6178014, “Discovery and Administration Optimization of Novel Selective CDK9 Inhibitor, 1-7a-B1, for Improved Pharmacokinetics and Antitumor Efficacy In Vivo” (J Med Chem, 2025).
# System: not listed separately
# Test: Stability in human plasma assessed as half life at 100 uM measured up to 120 mins by LC-MS/MS analysis
# Type: ADME, cell-free
# Conditions: not given
row,Structure (SMILES),half-life at 100 µM
1,CC(C)[N+](C)(CCOC(=O)C1c2ccccc2Oc2ccccc21)C(C)C.[Br-] [PROPANTHELINE BROMIDE],15.6 min

# Target: CYP2C19 (Homo sapiens, UniProt P33261)
# Test: Inhibition of CYP2C19 in human liver microsome at 10 uM pre-incubated with compound for 10 mins in presence of NADPH-regenerating system by LC-MS/MS analysis relative to control
# Type: ADME
# Conditions: liver microsomes
# Sequence of CYP2C19 (P33261 whole entry): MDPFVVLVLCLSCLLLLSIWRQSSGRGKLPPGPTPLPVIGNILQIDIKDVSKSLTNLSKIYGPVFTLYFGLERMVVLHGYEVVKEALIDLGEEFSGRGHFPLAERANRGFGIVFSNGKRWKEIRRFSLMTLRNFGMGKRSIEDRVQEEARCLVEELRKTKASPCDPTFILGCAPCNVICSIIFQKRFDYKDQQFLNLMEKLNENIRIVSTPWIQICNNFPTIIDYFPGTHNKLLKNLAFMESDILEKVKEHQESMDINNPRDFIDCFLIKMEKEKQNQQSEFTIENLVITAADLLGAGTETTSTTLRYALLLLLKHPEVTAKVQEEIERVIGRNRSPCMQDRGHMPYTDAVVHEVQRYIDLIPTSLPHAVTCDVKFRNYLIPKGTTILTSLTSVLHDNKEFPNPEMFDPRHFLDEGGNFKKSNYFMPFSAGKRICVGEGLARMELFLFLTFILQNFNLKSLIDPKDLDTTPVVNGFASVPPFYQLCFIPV
row,Structure (SMILES),inhibition at 10 µM
1,"CCC1(c2ccccc2)NC(=O)N(Cc2ccccc2)C1=O (single isomer, unassigned; (+))",88.3%

# System: HCT-116
# Test: Antiproliferative activity against human HCT-116 cells assessed as reduction in colony formation incubated for 14 days by crystal violet staining based analysis
# Type: functional, cell-based
# Conditions: dose 50-400 nM, time 14.0 day
row,Structure (SMILES),Activity
1,Cc1ncc(-c2ccnc(Nc3ccc(S(C)(=O)=O)cc3)n2)n1C(C)C [AZD-5438],Dose-dependent-effect

# Target: CDK9/cyclin T1 (Homo sapiens, UniProt P50750)
# Test: Inhibition of His-tagged full length human recombinant CDK9/cyclinT1 using KTFCGTPEYLAPEVRREPRILSEEEQEMFRDFDYIADWC as substrate incubated for 60 mins by ADP-Glo kinase assay
# Type: protein-complex assay
# Conditions: not given
# Sequence of CDK9/cyclin T1 (O60563 whole entry): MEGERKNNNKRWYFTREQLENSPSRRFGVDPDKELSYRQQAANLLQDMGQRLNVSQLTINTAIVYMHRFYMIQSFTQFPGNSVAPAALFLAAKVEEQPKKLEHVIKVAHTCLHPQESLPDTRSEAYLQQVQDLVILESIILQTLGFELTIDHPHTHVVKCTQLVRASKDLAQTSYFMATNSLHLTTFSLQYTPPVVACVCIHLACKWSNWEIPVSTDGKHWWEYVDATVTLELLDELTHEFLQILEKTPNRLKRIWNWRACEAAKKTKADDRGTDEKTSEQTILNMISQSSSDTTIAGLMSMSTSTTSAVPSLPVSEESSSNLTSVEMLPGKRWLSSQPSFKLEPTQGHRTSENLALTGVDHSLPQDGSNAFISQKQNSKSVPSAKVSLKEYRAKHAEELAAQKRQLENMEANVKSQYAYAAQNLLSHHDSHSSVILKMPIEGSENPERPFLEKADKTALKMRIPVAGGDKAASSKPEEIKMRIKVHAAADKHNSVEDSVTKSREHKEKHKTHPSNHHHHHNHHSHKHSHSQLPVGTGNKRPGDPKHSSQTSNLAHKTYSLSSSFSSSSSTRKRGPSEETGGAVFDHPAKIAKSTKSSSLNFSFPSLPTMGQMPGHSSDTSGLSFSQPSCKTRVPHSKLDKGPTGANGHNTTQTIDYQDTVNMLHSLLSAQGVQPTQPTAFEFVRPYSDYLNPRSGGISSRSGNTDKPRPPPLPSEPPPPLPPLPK
# Sequence of CDK9/cyclin T1 (P50750 whole entry): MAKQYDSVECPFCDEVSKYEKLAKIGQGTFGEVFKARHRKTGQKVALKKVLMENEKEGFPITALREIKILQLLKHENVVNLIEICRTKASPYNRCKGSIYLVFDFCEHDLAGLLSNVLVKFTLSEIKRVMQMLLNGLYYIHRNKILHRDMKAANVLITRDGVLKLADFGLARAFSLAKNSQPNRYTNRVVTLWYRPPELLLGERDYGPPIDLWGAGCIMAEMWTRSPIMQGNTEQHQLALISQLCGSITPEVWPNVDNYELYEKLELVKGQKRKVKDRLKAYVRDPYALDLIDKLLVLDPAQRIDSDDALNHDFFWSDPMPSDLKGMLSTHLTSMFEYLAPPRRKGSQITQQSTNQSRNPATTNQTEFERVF
row,Structure (SMILES),IC50
1,O=C(Nc1cccc(C(=O)N2CCOCC2)c1)Nc1cc(-c2ccc(Cl)cc2F)ccn1,> 50 nM
2,CCN1CCN(C(=O)c2cccc(NC(=O)Nc3cc(-c4ccc(F)cc4OC(C)C)ccn3)c2)CC1,16.5 nM
3,COc1ccc(-c2ccnc(NC(=O)Nc3cccc(C(=O)N4CCOCC4)c3)c2)cc1,> 50 nM
4,CC(C)Oc1cc(F)ccc1-c1ccnc(NC(=O)Nc2cccc(C(=O)N3CCCC3)c2)c1,35.8 nM
5,O=C(Nc1cccc(C(=O)N2CCOCC2)c1)Nc1cc(-c2ccc(F)cc2F)ccn1,> 50 nM
6,O=C(Nc1cccc(C(=O)N2CCOCC2)c1)Nc1cc(-c2ccc(F)cc2OCC2CCCCC2)ccn1,88.1 nM
7,O=C(Nc1cccc(C(=O)N2CCOCC2)c1)Nc1cc(-c2ccc(F)cc2)ccn1,> 50 nM
8,O=C(Nc1cccc(C(=O)N2CCOCC2)c1)Nc1cc(-c2cccc(Cl)c2)ccn1,35.9 nM
9,O=C(Nc1cccc(C(=O)N2CCOCC2)c1)Nc1cc(-c2ccc(F)c(F)c2)ccn1,> 50 nM
10,CCN1CCN(C(=O)c2ccc(NC(=O)Nc3cc(-c4ccc(F)cc4OC(C)C)ccn3)cc2)CC1,> 50 nM
11,COc1ccccc1-c1ccnc(NC(=O)Nc2cccc(C(=O)N3CCOCC3)c2)c1,45.9 nM
12,CC(C)Oc1cc(F)ccc1-c1ccnc(NC(=O)Nc2ccc(C(=O)N3CCN(C(C)C)CC3)cc2)c1,> 50 nM
13,O=C(Nc1cccc(C(=O)N2CCOCC2)c1)Nc1cc(-c2cc(F)c(F)c(F)c2)ccn1,> 50 nM
14,COc1cc(F)ccc1-c1ccnc(NC(=O)Nc2cccc(C(=O)N3CCOCC3)c2)c1,27.8 nM
15,O=C(Nc1cccc(C(=O)N2CCOCC2)c1)Nc1cc(-c2ccccc2F)ccn1,> 50 nM

# System: HT-29
# Test: Antiproliferative activity against human HT-29 cells assessed as inhibition of cell growth incubated for 48 hrs by CCK8 assay
# Type: functional
# Conditions: not given
row,Structure (SMILES),GI50
1,O=C(Nc1cccc(C(=O)N2CCOCC2)c1)Nc1cc(-c2ccc(Cl)cc2F)ccn1,> 1000 nM
2,CCN1CCN(C(=O)c2cccc(NC(=O)Nc3cc(-c4ccc(F)cc4OC(C)C)ccn3)c2)CC1,570 nM
3,COc1ccc(-c2ccnc(NC(=O)Nc3cccc(C(=O)N4CCOCC4)c3)c2)cc1,> 1000 nM
4,CC(C)Oc1cc(F)ccc1-c1ccnc(NC(=O)Nc2cccc(C(=O)N3CCCC3)c2)c1,180 nM
5,O=C(Nc1cccc(C(=O)N2CCOCC2)c1)Nc1cc(-c2ccc(F)cc2F)ccn1,> 1000 nM
6,Cc1ncc(-c2ccnc(Nc3ccc(S(C)(=O)=O)cc3)n2)n1C(C)C [AZD-5438],700 nM
7,O=C(Nc1cccc(C(=O)N2CCOCC2)c1)Nc1cc(-c2ccc(F)cc2OCC2CCCCC2)ccn1,> 1000 nM
8,O=C(Nc1cccc(C(=O)N2CCOCC2)c1)Nc1cc(-c2ccc(F)cc2)ccn1,> 1000 nM
9,O=C(Nc1cccc(C(=O)N2CCOCC2)c1)Nc1cc(-c2cccc(Cl)c2)ccn1,> 1000 nM
10,O=C(Nc1cccc(C(=O)N2CCOCC2)c1)Nc1cc(-c2ccc(F)c(F)c2)ccn1,> 1000 nM
11,CCN1CCN(C(=O)c2ccc(NC(=O)Nc3cc(-c4ccc(F)cc4OC(C)C)ccn3)cc2)CC1,> 1000 nM
12,COc1ccccc1-c1ccnc(NC(=O)Nc2cccc(C(=O)N3CCOCC3)c2)c1,> 1000 nM
13,CC(C)Oc1cc(F)ccc1-c1ccnc(NC(=O)Nc2ccc(C(=O)N3CCN(C(C)C)CC3)cc2)c1,> 1000 nM
14,O=C(Nc1cccc(C(=O)N2CCOCC2)c1)Nc1cc(-c2cc(F)c(F)c(F)c2)ccn1,> 1000 nM
15,COc1cc(F)ccc1-c1ccnc(NC(=O)Nc2cccc(C(=O)N3CCOCC3)c2)c1,> 1000 nM
16,O=C(Nc1cccc(C(=O)N2CCOCC2)c1)Nc1cc(-c2ccccc2F)ccn1,> 1000 nM

# System: HCT-116
# Test: Antiproliferative activity against human HCT-116 cells assessed as inhibition of cell growth incubated for 48 hrs by CCK8 assay
# Type: functional
# Conditions: not given
row,Structure (SMILES),GI50
1,O=C(Nc1cccc(C(=O)N2CCOCC2)c1)Nc1cc(-c2ccc(Cl)cc2F)ccn1,> 1000 nM
2,CCN1CCN(C(=O)c2cccc(NC(=O)Nc3cc(-c4ccc(F)cc4OC(C)C)ccn3)c2)CC1,200 nM
3,COc1ccc(-c2ccnc(NC(=O)Nc3cccc(C(=O)N4CCOCC4)c3)c2)cc1,> 1000 nM
4,CC(C)Oc1cc(F)ccc1-c1ccnc(NC(=O)Nc2cccc(C(=O)N3CCCC3)c2)c1,> 1000 nM
5,O=C(Nc1cccc(C(=O)N2CCOCC2)c1)Nc1cc(-c2ccc(F)cc2F)ccn1,> 1000 nM
6,Cc1ncc(-c2ccnc(Nc3ccc(S(C)(=O)=O)cc3)n2)n1C(C)C [AZD-5438],480 nM
7,O=C(Nc1cccc(C(=O)N2CCOCC2)c1)Nc1cc(-c2ccc(F)cc2OCC2CCCCC2)ccn1,> 1000 nM
8,O=C(Nc1cccc(C(=O)N2CCOCC2)c1)Nc1cc(-c2ccc(F)cc2)ccn1,> 1000 nM
9,O=C(Nc1cccc(C(=O)N2CCOCC2)c1)Nc1cc(-c2cccc(Cl)c2)ccn1,> 1000 nM
10,O=C(Nc1cccc(C(=O)N2CCOCC2)c1)Nc1cc(-c2ccc(F)c(F)c2)ccn1,> 1000 nM
11,CCN1CCN(C(=O)c2ccc(NC(=O)Nc3cc(-c4ccc(F)cc4OC(C)C)ccn3)cc2)CC1,> 1000 nM
12,COc1ccccc1-c1ccnc(NC(=O)Nc2cccc(C(=O)N3CCOCC3)c2)c1,> 1000 nM
13,CC(C)Oc1cc(F)ccc1-c1ccnc(NC(=O)Nc2ccc(C(=O)N3CCN(C(C)C)CC3)cc2)c1,> 1000 nM
14,O=C(Nc1cccc(C(=O)N2CCOCC2)c1)Nc1cc(-c2cc(F)c(F)c(F)c2)ccn1,> 1000 nM
15,COc1cc(F)ccc1-c1ccnc(NC(=O)Nc2cccc(C(=O)N3CCOCC3)c2)c1,> 1000 nM
16,O=C(Nc1cccc(C(=O)N2CCOCC2)c1)Nc1cc(-c2ccccc2F)ccn1,> 1000 nM
